Patent US20170114070A1, “INHIBITORS OF THE WNT SIGNALLING PATHWAYS” (Bayer Pharma Aktiengesellschaft, priority 2014, published 2017)
Counter-ions that a name gives are not always drawn.

Columns and labels:
[1] = tested on: HCT116 FOPFlash (FOP control vector, non-functional TCF elements); experiment: Cellular control reporter assay, HCT116 FOP control vector; format: cell-based; conditions: Homo sapiens, HCT-116; HCT116 stably transfected with FOP control vector; 36 hours incubation; luciferase expression; dilution series from 50 μM
Method: (§1) In a parallel approach, HCT116 cells were cotransfected with the FOP control vector and pcDNA3. The FOP vector is identical to the TOP construct, but it contains instead of functional TCF elements a randomized, non-functional sequence. For this transfection a stable transfected cell line was generated as well.
(§2) In preparation of the assay, the two cell lines were plated 24 hours before at 10000 cells per well of a 384 micro titre plate (MTP) in 30 μL growth medium. Selective inhibitory activity for small molecules on the mutated Wnt pathway was determined after parallel incubation of both (TOP and FOP) HCT116 reporter cell lines with a compound dilution series from 50 μM to 15 nM in steps of 3.16-fold dilutions in CAFTY buffer (130 mM NaCl, 5 mM KCl, 20 mM HEPES, 1 mM MgCl2, 5 mM NaHCO3, pH 7.4) containing 2 mM Ca^2+ and 0.01% BSA. The compounds were thereby serially prediluted in 100% DMSO and thereafter in addition 50 fold into the CAFTY compound dilution buffer (described above). From this dilution 10 μL were added to the cells in 30 μL growth medium and incubated for 36 hours at 37° C. and 5% CO2. Thereafter luciferase assay buffer (1:1 mixture of luciferase substrate buffer (20 mM Tricine, 2.67 mM MgSO4, 0.1 mM EDTA, 4 mM DTT, 270 μM Coenzyme A, 470 μM Luciferin, 530 μM ATP, ph adjusted to pH 7.8 with a sufficient volume of 5M NaOH) and Triton buffer (30 mL Triton X-100, 115 mL glycerol, 308 mg Dithiothreitol, 4.45 g Na2HPO4.2H2O, 3.03 g TRIS HCl, ad 1 l H20, pH 7.8) was added as equal volume to the compound solution on the cells to determine luciferase expression as a measure of Wnt signaling activity in a luminometer.

[2] = tested on: constitutive active Wnt pathway (HCT116 TOPFlash); experiment: Cellular reporter assay, HCT116 Super TopFlash (constitutive active Wnt pathway); format: cell-based; conditions: Homo sapiens, HCT-116; HCT116 stably transfected with Super TopFlash vector; 36 hours incubation; luciferase expression
Method: In order to discover and characterize small molecules which inhibit the constitutive active colorectal cancer cell (CRC) Wnt pathway, a cellular reporter assay was employed. The corresponding assay cell was generated by transfection of the colorectal cancer cell line HCT116 (ATCC, #CCL-247) with the Super TopFlash vector (Morin, Science 275, 1997, 1787-1790; Molenaar et al., Cell 86 (3), 1996, 391-399). The HCT116 cell line is cultivated at 37° C. and 5% CO2 in DMEM/F-12 (Life Technologies, #11320-074), supplemented with 2 mM glutamine, 20 mM HEPES, 1.4 mM pyruvate, 0.15% Na-bicarbonate and 10% foetal bovine serum (GIBCO, #10270), this cancer cell line is pathophysiological relevant since it carries a deletion of position S45 in the β-catenin gene, leading to constitutive active Wnt signaling. Stable transfectants were generated by cotransfection with pcDNA3 and selection of stable transfected cells with 1 mg/ml G418.
as §1, §2

Row | SMILES | IC50 [1] [µM] | IC50 [2] [µM]
1 | CN1CCN(CC(=O)Nc2cc(C(=O)Nc3cnc(-c4cccnc4F)cn3)ccc2OC(F)(F)F)CC1 [Example 36, N-[5-(2-fluoropyridin-3-yl)pyrazin-2-yl]-3-{[(4-methylpiperazin-1-yl)acetyl]amino}-4-(trifluoromethoxy)benzamide hydrochloride] | ≥ 50 | 0.12
2 | CN1CCN(CC(=O)Nc2cc(C(=O)Nc3cnc(-c4cnc(N)nc4)cn3)ccc2OC(F)(F)F)CC1 [Example 37, N-[5-(2-aminopyrimidin-5-yl)pyrazin-2-yl]-3-{[(4-methylpiperazin-1-yl)acetyl]amino}-4-(trifluoromethoxy)benzamide] | ≥ 50 | 0.223
3 | O=C(CN1CCOCC1)Nc1cc(C(=O)Nc2ccc(-c3cccnc3)nn2)ccc1OC(F)(F)F [Example 14, 3-[(morpholin-4-ylacetyl)amino]-N-[6-(pyridin-3-yl)pyridazin-3-yl]-4-(trifluoromethoxy)benzamide] | ≥ 50 | 0.054
4 | CN1CCN(CC(=O)Nc2cc(C(=O)Nc3cnc(-c4ccccc4)cn3)ccc2OC2CC2)CC1 [Example 21, 4-(cyclopropyloxy)-3-{[(4-methylpiperazin-1-yl)acetyl]amino}-N-(5-phenylpyrazin-2-yl)benzamide] | 11 | 0.0168
5 | O=C(CN1CCOCC1)Nc1cc(C(=O)Nc2ncc(-c3ccccc3)cn2)ccc1OC1CC1 [Example 34, 4-(cyclopropyloxy)-3-[(morpholin-4-ylacetyl)amino]-N-(5-phenylpyrimidin-2-yl)benzamide] | ≥ 50 | 12.6
6 | O=C(CN1CCOCC1)Nc1cc(C(=O)Nc2cnc(-c3cncnc3)cn2)ccc1OC1CC1 [Example 27, 4-(cyclopropyloxy)-3-[(morpholin-4-ylacetyl)amino]-N-[5-(pyrimidin-5-yl)pyrazin-2-yl]benzamide] | ≥ 50 | 16.7
7 | CN1CCN(CC(=O)Nc2cc(C(=O)Nc3ccc(-c4cnc(N)nc4)nn3)ccc2OC(F)(F)F)CC1 [Example 3, N-[6-(2-aminopyrimidin-5-yl)pyridazin-3-yl]-3-{[(4-methylpiperazin-1-yl)acetyl]amino}-4-(trifluoromethoxy)benzamide] | ≥ 50 | 0.0992
8 | O=C(CN1CCOCC1)Nc1cc(C(=O)Nc2ccc(-c3ccccc3)nn2)ccc1OC(F)(F)F [Example 7, 3-[(morpholin-4-ylacetyl)amino]-N-(6-phenylpyridazin-3-yl)-4-(trifluoromethoxy)benzamide] | ≥ 50 | 0.02
9 | CN1CCN(CC(=O)Nc2cc(C(=O)Nc3cnc(-c4ccccc4)cn3)ccc2OC(F)(F)F)CC1 [Example 11, 3-{[(4-methylpiperazin-1-yl)acetyl]amino}-N-(5-phenylpyrazin-2-yl)-4-(trifluoromethoxy)benzamide] | ≥ 50 | 0.013

Results, then the compound that gave them:

Row | IC50 [1] [µM] | IC50 [2] [µM] | SMILES
10 | 4.1 | 0.24 | Cc1cccc(-c2cnc(NC(=O)c3ccc(OC(F)(F)F)c(NC(=O)CN4CCOCC4)c3)cn2)c1 [Example 47, N-[5-(3-methylphenyl)pyrazin-2-yl]-3-[(morpholin-4-ylacetyl)amino]-4-(trifluoromethoxy)benzamide]
11 | ≥ 50 | 0.12 | Cc1ccccc1-c1cnc(NC(=O)c2ccc(OC(F)(F)F)c(NC(=O)CN3CCN(C)CC3)c2)cn1 [Example 42, N-[5-(2-methylphenyl)pyrazin-2-yl]-3-{[(4-methylpiperazin-1-yl)acetyl]amino}-4-(trifluoromethoxy)benzamide]
12 | ≥ 50 | ≥ 50 | O=C(CN1CCOCC1)Nc1cc(C(=O)Nc2cnc(-c3ccccn3)cn2)ccc1OC(F)(F)F [Example 61, 3-[(morpholin-4-ylacetyl)amino]-N-[5-(pyridin-2-yl)pyrazin-2-yl]-4-(trifluoromethoxy)benzamide]
13 | ≥ 50 | 16 | O=C(CN1CCOCC1)Nc1cc(C(=O)Nc2cnc(-c3cccc(F)c3)cn2)ccc1OC(F)(F)F [Example 63, N-[5-(3-fluorophenyl)pyrazin-2-yl]-3-[(morpholin-4-ylacetyl)amino]-4-(trifluoromethoxy)benzamide]
14 | 25.5 | 12.5 | N=S1(=O)CCN(CC(=O)Nc2cc(C(=O)Nc3ccc(-c4ccccc4)nn3)ccc2OC(F)(F)F)CC1 [Example 62]
15 | 24.9 | 0.225 | Cc1ccccc1-c1cnc(NC(=O)c2ccc(OC(F)(F)F)c(NC(=O)CN3CCOCC3)c2)cn1 [Example 39, N-[5-(2-methylphenyl)pyrazin-2-yl]-3-[(morpholin-4-ylacetyl)amino]-4-(trifluoromethoxy)benzamide]
16 | ≥ 50 | 0.26 | CN1CCN(CC(=O)Nc2cc(C(=O)Nc3cnc(-c4cncnc4)cn3)ccc2OC(F)(F)F)CC1 [Example 49]
